Paper PMC7118210 (Frontiers in Pharmacology, 2020)
Read-outs that look alike come from different tables or passages of the source.

Tests used:
[1] = cited from earlier work
[2] = Multiple-dose pharmacokinetics in dogs; assay type: in vivo, Beagle dogs
Method: The optimal volume and activity in unit volume of enzyme solution [0.2 M acetic acid/water solution: 0.2 M ammonium acetate/water solution, 15:35 (v/v)] were determined through a pretest of the enzyme (rat plasma, 10 μl, 10 U μl^-1; dog plasma, 10 μl, 10 U μl^-1; human plasma, 20 μl, 20 U μl^-1; human urine, 10 μl, 10 U μl^-1). After enzyme incubation, 10 μl of IS solution was added to the plasma and urine samples (2 μg ml^-1 quercetin 3-β-D-glucoside for rat and dog plasma; 583 ng ml^-1 naringin-D4 and 160 ng ml^-1 naringenin-D4 for human plasma; and 9,710 ng ml^-1 naringin-D4 and 6,000 ng ml^-1 naringenin-D4 for human urine). To each fecal sample, 9-fold methanol-normal saline (2:1, v/v) was added, mixed (18,000 rpm, 15 min) by vortexing and centrifuged (10 min, 9,000 rpm, 4°C). Next, 10 μl IS solution (971 ng ml^-1 naringin-D4 and 600 ng ml^-1 naringenin-D4) was added to the supernatants of feces (200 μl) without enzyme incubation. […] The solid material was dissolved with acetonitrile-water (1:1, v/v) and injected into the ultra high-performance liquid chromatography coupled with triple quadrupole mass spectrometry (UHPLC/MS/MS) system as described below. The analysis of nonclinical and clinical samples was performed with a UHPLC/MS/MS system that consisted of a Shimadzu Nexera X2 ultra high-performance liquid chromatography (UHPLC) (Shimadzu Corp., Kyoto, Japan) coupled with an AB Sciex API4000 triple-quadrupole mass spectrometry (MS/MS) system (AB Sciex, Foster City, CA, USA) equipped with an electrospray ionization source and controlled by Analyst (v. 1.6.2) software. […] The injection volume was 10 μl with the flow rate of 0.3 ml min^-1 for plasma, and 0.4 ml min^-1 for urine and feces. The compounds were detected by multiple reaction monitoring in the negative ion electrospray mode. The electrospray source conditions were as follows: ion source gas1 30 psi, ion source gas2 60 psi, curtain gas 20 psi, collisionally activated dissociation (CAD) gas 8 psi, temperature 500°C, and ion spray voltage −4,500 V. Zero air was used for ion source gas1 and ion source gas2 and nitrogen for curtain gas and CAD gas. […] All pharmacokinetic and excretion parameters were expressed as mean ± standard deviation (SD). All mean and SD values were reported to three significant figures. The pharmacokinetic parameters were calculated using the Phoenix WinNonlin software (Version 6.4, Pharsight Corp., Cary, NC, USA) and compared using the Student's t-test (p < 0.05) in SPSS 18.0 (SPSS Inc., Chicago, IL, USA). […] For the multiple-dose studies, pharmacokinetic parameters included the mean plasma level at steady state, Tmax, t1/2, the percent fluctuation, and the accumulation index (Table 3). […] In addition, we compared the pharmacokinetic parameters obtained from males and females (Tables 4–6).

[3] = naringin 12.4 mg kg^-1 multiple dose, dog, female
[4] = naringin 12.4 mg kg^-1 multiple dose, dog, male
[5] = naringin 12.4 mg kg^-1 p.o. three times a day, multiple dose, dog

## O=C1C[C@@H](c2ccc(O)cc2)Oc2cc(O)cc(O)c21 [naringenin, Naringenin]
[1]; rats, ref Liu M. et al., 2012
  time within which excreted: ≤ 24 h
[2]; dog, in vivo
  accumulation in multiple-dose study: no significant accumulation
[2]; [3]
  CavSS: 50.7 ± 16.1 ng/mL
[2]; [4]
  CavSS: 49 ± 10.4 ng/mL
[2]; [5]
  CavSS: 49.8 ± 12.2 ng/mL

## C[C@@H]1O[C@@H](O[C@H]2[C@H](Oc3cc(O)c4c(c3)O[C@H](c3ccc(O)cc3)CC4=O)O[C@H](CO)[C@@H](O)[C@@H]2O)[C@H](O)[C@H](O)[C@H]1O [naringin, Naringin]
[1]; aged rats, in the forms of naringin and naringenin, ref Zeng et al., 2019
  cumulative excretion percentage: 19%
[1]; aged rats, in the forms of naringin, naringenin, and 4-hydroxyphenylpropionic acid, ref Zeng et al., 2019
  cumulative excretion percentage: 98%
[1]; rats, in the forms of naringin, naringenin, and 4-hydroxyphenylpropionic acid, ref Liu M. et al., 2012
  cumulative excretion percentage: 21%
[1]; rats, ref Liu M. et al., 2012
  time within which excreted: ≤ 24 h
[2]; dogs
  accumulation in multiple-dose study: no significant accumulation
[2]; [3]
  CavSS: 22.1 ± 3.41 ng/mL
  Fluctuation: 370 ± 119%
[2]; [4]
  CavSS: 15.1 ± 2.53 ng/mL
  Fluctuation: 242 ± 8.10%
[2]; [5]
  CavSS: 18.6 ± 4.68 ng/mL
[2]; naringin 12.4 mg kg^-1 p.o. three times a day, multiple dose, dog, (CmaxSS−CminSS)/CavSS×100%
  Fluctuation: 306 ± 103%
